According to ChEMBL document CHEMBL1121865, “Epimeric cis-decahydroquinoline-5-carboxylic acids: effects on gamma-aminobutyric acid uptake and receptor binding in vitro” (J Med Chem, 1981):

How the values were obtained:
[1] = biological target: T1, GABA-A receptor; anion channel (Rattus norvegicus) (UniProt O09028+P15431+P18506+P18508+P19969+P20236+P23574+P23576+P28471+P28473+P30191+P62813+P63079+P63138+Q91ZM7+Q9ES14); assay: Percent displacement of [3H]GABA at Gamma-aminobutyric acid receptor of rat brain membranes at 100 uM; type: cell membranes; settings: Membrane
[2] = biological target: GABA transporter (Rattus norvegicus) (UniProt P31647+P23978+P31646+P48056); assay: Percent inhibition of high affinity [3H]GABA uptake into rat brain synaptosomes at 100 uM; type: functional, subcellular
[3] = biological target: T1, GABA-A receptor; anion channel (Rattus norvegicus); settings: Membrane, 0.01 uM
Description: Percent displacement of [3H]GABA at Gamma-aminobutyric acid receptor of rat brain membranes at 0.01 uM

GABA transporter (Rattus norvegicus), sequence (P31646 whole entry, looked up): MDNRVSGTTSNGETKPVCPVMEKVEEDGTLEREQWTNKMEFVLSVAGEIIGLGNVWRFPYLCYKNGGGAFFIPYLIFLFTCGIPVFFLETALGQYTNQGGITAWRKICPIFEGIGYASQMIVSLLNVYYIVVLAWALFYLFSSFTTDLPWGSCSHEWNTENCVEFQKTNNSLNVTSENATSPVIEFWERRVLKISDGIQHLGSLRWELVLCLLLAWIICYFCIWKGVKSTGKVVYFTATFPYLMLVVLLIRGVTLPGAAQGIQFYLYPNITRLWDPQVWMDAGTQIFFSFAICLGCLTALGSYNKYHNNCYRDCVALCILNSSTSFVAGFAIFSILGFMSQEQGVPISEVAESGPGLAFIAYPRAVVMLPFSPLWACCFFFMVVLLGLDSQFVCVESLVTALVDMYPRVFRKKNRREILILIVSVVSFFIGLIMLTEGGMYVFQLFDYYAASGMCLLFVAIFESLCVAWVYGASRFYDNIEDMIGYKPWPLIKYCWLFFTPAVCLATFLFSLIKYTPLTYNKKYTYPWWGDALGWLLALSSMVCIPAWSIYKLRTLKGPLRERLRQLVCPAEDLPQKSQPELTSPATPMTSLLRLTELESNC
GABA transporter (Rattus norvegicus), sequence (P31647 whole entry, looked up): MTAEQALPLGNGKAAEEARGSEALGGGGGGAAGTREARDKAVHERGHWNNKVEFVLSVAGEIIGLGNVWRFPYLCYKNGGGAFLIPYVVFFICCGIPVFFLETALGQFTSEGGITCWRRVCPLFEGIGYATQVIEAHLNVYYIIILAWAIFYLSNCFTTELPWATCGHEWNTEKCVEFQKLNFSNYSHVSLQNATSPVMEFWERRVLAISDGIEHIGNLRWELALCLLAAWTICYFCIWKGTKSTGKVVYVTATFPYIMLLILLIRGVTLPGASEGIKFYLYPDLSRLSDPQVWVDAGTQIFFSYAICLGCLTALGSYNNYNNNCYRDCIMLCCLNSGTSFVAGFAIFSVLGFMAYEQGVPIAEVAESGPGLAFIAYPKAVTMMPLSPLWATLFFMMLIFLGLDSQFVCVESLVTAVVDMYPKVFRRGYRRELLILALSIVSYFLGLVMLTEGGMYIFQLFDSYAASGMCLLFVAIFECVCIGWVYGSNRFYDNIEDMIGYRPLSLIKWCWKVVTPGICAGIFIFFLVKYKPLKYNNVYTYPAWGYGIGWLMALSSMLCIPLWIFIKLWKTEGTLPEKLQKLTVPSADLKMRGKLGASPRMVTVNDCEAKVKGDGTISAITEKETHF
GABA transporter (Rattus norvegicus), sequence (P48056 whole entry, looked up): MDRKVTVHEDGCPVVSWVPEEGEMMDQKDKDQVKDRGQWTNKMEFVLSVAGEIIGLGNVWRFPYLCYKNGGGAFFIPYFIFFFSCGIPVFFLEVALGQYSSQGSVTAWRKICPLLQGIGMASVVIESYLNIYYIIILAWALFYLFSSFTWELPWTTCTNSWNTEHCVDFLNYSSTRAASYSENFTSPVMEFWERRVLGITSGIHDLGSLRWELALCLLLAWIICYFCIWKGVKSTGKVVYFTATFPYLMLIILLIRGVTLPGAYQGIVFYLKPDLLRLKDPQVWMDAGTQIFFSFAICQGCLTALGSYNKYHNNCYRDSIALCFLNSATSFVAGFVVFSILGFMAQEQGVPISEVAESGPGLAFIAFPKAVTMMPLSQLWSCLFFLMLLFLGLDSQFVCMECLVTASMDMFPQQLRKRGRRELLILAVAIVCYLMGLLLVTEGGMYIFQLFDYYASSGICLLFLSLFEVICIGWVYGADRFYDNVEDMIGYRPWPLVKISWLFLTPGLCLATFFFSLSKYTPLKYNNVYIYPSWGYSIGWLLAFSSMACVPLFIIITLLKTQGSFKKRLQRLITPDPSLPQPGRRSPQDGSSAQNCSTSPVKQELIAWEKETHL

SMILES	Displacement [1] [%]	inhibition [2] [%]	Displacement [3] [%]
O=C(O)C1CCCC2NCCCC21 (cis isomer)	17	20	
O=C(O)C1CCCC2NCCCC21 (stereo in doubt)	< 5	< 1	
NCCCC(=O)O			48
NCc1cc(O)no1			86
